{"source": "patent US20030105121A1", "about": "“Method of preventing lipodystrophy syndrome or reversing a pre-existing syndrome in HIV-infected patients being treated with antiretroviral agents” (priority 1999, published 2003)", "key": {"[1]": {"conditions": "human, in vivo", "source_text": "(§1) Because individual examples of treatment histories are of little value in discerning the effectiveness of a given treatment for HIV/AIDS infections, and especially effectiveness in reducing the likelihood of developing a highly variable side effect such as lipodystrophy, due among other things to wide differences in the initial extent of the infection as well as in the response of any given individual, a group of 85 different cases will be evaluated as a group in the following discussion. This number is believed to be a sufficiently large statistical sample to permit a reasonable judgment to be made of the effectiveness of the treatment of this invention.\nThe medication status of the group at the time of initiation of PI treatment was as follows: Due to historical circumstances, i.e. the predilection in view of the earlier patent of the applicant to treating HIV/AIDS patients with naltrexone, all individuals of the group were already receiving naltrexone at the low dosage level. Based on blood count of […] lymphocytes, individual clinical history and personal patient preference, 60 had already been receiving, or were started on, lamivudine (NA) while 49 of the 65 were also receiving zidovudine (NA) and 4 of the 69 were receiving a combination of lamivudine and stavovudine, bearing in mind that the NA group of antivirals had been available for the longest time. […] Patients already on any of the NA agents, as just specified, were continued on this treatment during the study. The remaining 25 were receiving no medications (other than naltrexone) at the start of the study."}, "[2]": {"test_system": "lipodystrophy", "experiment": "Case histories (Examples a-g): LDN treatment of pre-existing lipodystrophy", "type": "in vivo, human", "conditions": "for serum cholesterol after resuming naltrexone: Example a nine months (from 270), Example d 12 months (from 360)", "source_text": "One will have noted that the above case experience was entirely focused on limiting the risk of patients who were at the time free of lipodystrophy symptoms developing such symptoms during their antiretroviral therapy. This is explained by the fact that due to historical circumstances, i.e. the only recent introduction of antiretroviral therapy, the patients in this group were all being treated with naltrexone as described before being exposed to antiretroviral therapy. […] This was not anticipated and is considered to be a quite surprising finding."}, "[3]": {"experiment": "Long experience with low dose naltrexone: side effects", "type": "in vivo, human", "protocol": "Long experience has shown the perhaps three percent (3%) of patients receiving the drug at a 4.5 mg. dosage per day may suffer sleep disturbance lasting more than two or three days. Where this has been observed, reduction of the dosage to 3.0 mg. generally returns the sleep pattern to normalcy."}, "[4]": {"test_system": "HIV", "experiment": "Experience with low dose naltrexone treatment of HIV", "type": "in vivo, human", "conditions": "low dose naltrexone alone", "source_text": "I have already disclosed in U.S. Pat. No. 4,888,346, issued Dec. 19, 1989, as a continuation of Ser. No. 06/916,180, filed Oct. 7, 1986, the administration of an essentially pure opiate receptor antagonist at a low dose level to patients suffering from acquired immune deficiency syndrome (or AIDS) in any of its known states, including AIDS-related complex. For this treatment, the amount of the essentially pure opiate receptor antagonist was required to be at a quite low level corresponding in results to those obtained by the administration of Naltrexone at a dosage level of from 1.0 mg. to 10 mg., preferably at a dosage level of 1.0 mg. to about 5 mg., and most preferably up to about 3.0 mg, all per day. At dosage levels above about 10 mg. per day, not only were the desired therapeutic results not obtained but the effect of the treatment appeared to be negative in acerbating the disease."}, "[5]": {"test_system": "HIV", "type": "in vivo", "conditions": "four continuously undetectable patients, last six months of the study", "source_text": "as §1\nThe medication status of the group at the time of initiation of PI treatment was as follows: Due to historical circumstances, i.e. the predilection in view of the earlier patent of the applicant to treating HIV/AIDS patients with naltrexone, all individuals of the group were already receiving naltrexone at the low dosage level. Based on blood count of […] lymphocytes, individual clinical history and personal patient preference, 60 had already been receiving, or were started on, lamivudine (NA) while 49 of the 65 were also receiving zidovudine (NA) and 4 of the 69 were receiving a combination of lamivudine and stavovudine, bearing in mind that the NA group of antivirals had been available for the longest time. […]"}, "[6]": {"test_system": "lipodystrophy syndrome", "conditions": "in vivo; cited from earlier work"}, "[7]": {"conditions": "3.0 mg qhs added to ARV, single cases"}, "[8]": {"conditions": "3.0 mg qhs added to ARV, single cases, listed as LDN"}}, "note": "Entries after “also recorded” stand apart in the source; their conditions may differ."}
{"smiles": "CC(C)(C)NC(=O)[C@@H]1CN(Cc2cccnc2)CCN1C[C@@H](O)C[C@@H](Cc1ccccc1)C(=O)N[C@H]1c2ccccc2C[C@H]1O", "note": "[indinavir]", "values": [{"measurement": "persistent side effects", "setting": "[1]", "value": "mild nausea"}]}
{"smiles": "O=C1CC[C@@]2(O)[C@H]3Cc4ccc(O)c5c4[C@@]2(CCN3CC2CC2)[C@H]1O5", "note": "[naltrexone, Naltrexone]", "values": [{"measurement": "serum triglycerides after resuming LDN", "setting": "[2]; 3.0 mg qhs added to ARV, 12 months, from 620", "value": 140}, {"measurement": "reduction of \"buffalo hump\"", "setting": "[2]; 3 mg qhs added to ARV, nine months", "value": "about 50%"}, {"measurement": "serum cholesterol after resuming naltrexone", "setting": "[2]; 3 mg qhs added to ARV", "value": 190}, {"measurement": "serum cholesterol after resuming naltrexone", "setting": "[2]; 3 mg qhs added to ARV, listed as LDN", "value": 220}, {"measurement": "other physical signs (subcutaneous tissue, breast size)", "setting": "[2]; [7]", "value": "returned"}, {"measurement": "waist size outcome", "setting": "[2]; [7]", "value": "gradually reduced to its former size; also recorded: returned to their previous normal state"}, {"measurement": "other physical signs (subcutaneous tissue, breast size)", "setting": "[2]; [8]", "value": "about one-half"}, {"measurement": "waist size outcome", "setting": "[2]; [8]", "value": "partially cleared by about one-half"}, {"measurement": "decrease in waist size", "setting": "[2]; 4.5 mg qhs added to ARV, eight weeks", "value": "4 ″"}, {"measurement": "insulin need", "setting": "[2]; 4.5 mg qhs added to ARV, four weeks, from 90 units", "value": 20, "unit": "units per day"}, {"measurement": "waist size", "setting": "[2]; 4.5 mg qhs added to ARV, three months, from 44″", "value": "40 ″"}, {"measurement": "\"buffalo hump\" outcome", "setting": "[2]; 3.0-4.5 mg qhs added to ARV, single cases", "value": "completely disappeared; also recorded: shrank and eventually disappeared"}, {"measurement": "signs of lipodystrophy overall", "setting": "[2]; 3.0-4.5 mg qhs added to ARV, single cases, about eight months, listed as LDN", "value": "gradually disappeared; also recorded: complete reversal; also recorded: gradual clearing in the residual signs"}, {"measurement": "\"buffalo hump\" outcome", "setting": "[2]; 3.0-4.5 mg qhs added to ARV, single cases, listed as LDN", "value": "about one-half; also recorded: largely disappeared"}, {"measurement": "patients with sleep disturbance lasting more than two or three days", "setting": "[3]; 4.5 mg. dosage per day", "value": "~3", "unit": "%"}, {"measurement": "side effects or toxicity", "setting": "[3]; low dose levels", "value": "minimal side effects or evidence of toxicity"}, {"measurement": "effect on the patient's HIV condition", "setting": "[4]", "value": "stabilizing effect"}]}
{"smiles": "Cc1c(O)cccc1C(=O)N[C@@H](CSc1ccccc1)[C@H](O)CN1C[C@H]2CCCC[C@H]2C[C@H]1C(=O)NC(C)(C)C", "note": "[nelfinavir]", "values": [{"measurement": "change in viral levels after substitution of indinavir", "setting": "[5]", "value": "did not result in any appreciable change in viral levels"}, {"measurement": "side effect associated with the drug", "setting": "[1]", "value": "persistent diarrhea"}]}
{"smiles": "Cc1ccnc2c1NC(=O)c1cccnc1N2C1CC1", "note": "[nevirapine]", "values": [{"measurement": "patients developing body-wide allergic rashes with hives and itching", "setting": "[1]", "value": "Seven"}]}
{"smiles": "Cc1cn([C@H]2C=C[C@@H](CO)O2)c(=O)[nH]c1=O", "note": "[zerit, stavudine]", "values": [{"measurement": "rate or risk of lipodystrophy", "setting": "[6]", "value": "at least 40%"}]}
